Results on 5 molecules are retold here after patent US20100093706A1, “MULTIMEDIATOR TRANSPORTER INHIBITORS FOR USE IN TREATMENT OF CENTRAL NERVOUS SYSTEM DISORDERS” (priority 2006, published 2010).

Read-outs that look alike come from different tables or passages of the source.

In series [1] the target is Histamine H1 receptor (Homo sapiens, UniProt P35367). Description: in vitro selectivity panel, Histamine H1 receptor. The format is binding. As for the experimental part: (§1) The in vitro selectivity profile of two representative subject compounds, (3) and (1), are also tested against a panel of other receptors, including the M1 receptor, Histamine H1 receptor, sigma-1 (σ1) receptor, β1-adrenergic receptor, and dopamine D2 receptor. Representative results are listed below in Table III: […]
Sequence of Histamine H1 receptor (P35367 whole entry): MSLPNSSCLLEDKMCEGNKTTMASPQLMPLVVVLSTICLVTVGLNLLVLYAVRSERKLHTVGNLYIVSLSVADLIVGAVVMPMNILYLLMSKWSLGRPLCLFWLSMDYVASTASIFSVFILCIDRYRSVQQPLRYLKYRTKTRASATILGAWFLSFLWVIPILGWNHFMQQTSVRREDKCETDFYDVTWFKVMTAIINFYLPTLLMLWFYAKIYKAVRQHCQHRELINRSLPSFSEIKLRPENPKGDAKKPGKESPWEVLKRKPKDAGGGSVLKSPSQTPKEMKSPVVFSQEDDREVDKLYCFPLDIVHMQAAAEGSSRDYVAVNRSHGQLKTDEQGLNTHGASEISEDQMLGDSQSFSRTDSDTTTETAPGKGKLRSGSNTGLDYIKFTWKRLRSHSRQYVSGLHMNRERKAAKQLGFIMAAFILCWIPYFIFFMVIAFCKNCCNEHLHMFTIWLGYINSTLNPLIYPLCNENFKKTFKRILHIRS

In series [2] the target is NET (norepinephrine transporter or SLC6A2) (Homo sapiens, UniProt P23975). Description: cell-based.
Sequence of NET (norepinephrine transporter or SLC6A2) (P23975 whole entry): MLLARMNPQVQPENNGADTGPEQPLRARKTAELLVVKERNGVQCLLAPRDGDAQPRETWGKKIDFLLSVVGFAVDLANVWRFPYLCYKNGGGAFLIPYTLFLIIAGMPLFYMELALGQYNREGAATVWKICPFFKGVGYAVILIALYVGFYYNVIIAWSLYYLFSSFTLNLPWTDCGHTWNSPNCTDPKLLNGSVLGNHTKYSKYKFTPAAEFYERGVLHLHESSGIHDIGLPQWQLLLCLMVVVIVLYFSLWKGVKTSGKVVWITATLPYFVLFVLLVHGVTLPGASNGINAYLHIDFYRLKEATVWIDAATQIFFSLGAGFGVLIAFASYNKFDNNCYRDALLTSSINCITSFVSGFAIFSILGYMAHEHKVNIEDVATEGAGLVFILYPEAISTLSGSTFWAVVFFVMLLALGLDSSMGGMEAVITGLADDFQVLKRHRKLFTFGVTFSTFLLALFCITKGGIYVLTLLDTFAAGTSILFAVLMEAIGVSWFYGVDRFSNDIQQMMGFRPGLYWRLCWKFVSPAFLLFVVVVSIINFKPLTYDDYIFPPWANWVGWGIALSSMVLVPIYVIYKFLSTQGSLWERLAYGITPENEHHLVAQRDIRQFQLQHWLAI
For series [3], the target named is T1, DAT (h) (Homo sapiens, UniProt Q01959).
T1 construct: expressed in transfected cells
T1 sequence (Q01959 whole entry): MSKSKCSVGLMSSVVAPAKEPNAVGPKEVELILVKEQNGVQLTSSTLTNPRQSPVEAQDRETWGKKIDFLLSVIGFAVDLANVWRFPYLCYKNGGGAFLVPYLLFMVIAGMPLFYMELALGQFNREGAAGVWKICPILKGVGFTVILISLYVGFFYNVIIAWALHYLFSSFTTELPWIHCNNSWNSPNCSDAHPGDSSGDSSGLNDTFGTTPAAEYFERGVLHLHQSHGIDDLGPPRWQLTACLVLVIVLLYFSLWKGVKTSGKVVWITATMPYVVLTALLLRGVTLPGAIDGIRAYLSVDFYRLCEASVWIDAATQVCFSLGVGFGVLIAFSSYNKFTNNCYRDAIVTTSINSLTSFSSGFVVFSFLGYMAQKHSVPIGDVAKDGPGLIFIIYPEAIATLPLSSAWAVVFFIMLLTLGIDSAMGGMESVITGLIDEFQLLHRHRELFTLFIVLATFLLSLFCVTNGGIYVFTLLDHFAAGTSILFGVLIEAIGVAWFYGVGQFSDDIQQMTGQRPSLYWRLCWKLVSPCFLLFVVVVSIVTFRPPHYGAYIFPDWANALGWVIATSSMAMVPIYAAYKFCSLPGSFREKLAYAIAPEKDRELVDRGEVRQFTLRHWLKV
Description: cell-based. In kind it is cell-based. As for the experimental part:
(§2) Functional activity of the compounds was determined in vitro in cellular assays using recombinant human cell lines.

Series [4] has as its target T2, 5-HT (h) (Homo sapiens, UniProt P31645).
T2 construct: expressed in transfected cells; host or cells: HEK-293
Description: cell-based. The format is cell-based. To be noted: read-out: 5-HT (h) in vitro functional uptake. As to the method:
as §2

The target of series [5] is T3, NET (h) (Homo sapiens, UniProt P23975).
T3 construct: expressed in transfected cells; host or cells: MDCK
T3 sequence (P23975 whole entry): as the sequence (P23975 whole entry) above
Description: cell-based. In kind it is cell-based. Conditions: read-out: NET (h) in vitro functional uptake. As to the method: as §2

Series [6] has as its target DAT (r) (Rattus norvegicus, UniProt P23977). Description: in vitro functional uptake, rat DAT. In kind it is cell-based.
In series [7] the target is T4, DAT (SLC6A3) (Homo sapiens, UniProt Q01959).
T4 construct: expressed in transfected cells
T4 sequence (Q01959 whole entry): as the sequence (Q01959 whole entry) above
Description: in vitro inhibition profile, IC50 of DAT (uptake assay). To be noted: for fold selectivity of DAT against related receptors (NET, 5-HT): from Table II IC50. In kind it is cell-based. As for the experimental part: Before the assay, cells expressing DAT are washed once with KRH and equilibrated for 5 min. The cells may be assayed in 24-well plates and incubated for 2-5 min. with tritiated amines. Nontransported inhibitors were preincubated for 5 min, and substrates were applied together with the tritiated substrate.
Experiments to determine the ionic requirements for DAT-mediated uptake are done in KRH buffer, substituting LiCl or choline Cl for NaCl (sodium-dependence) or substituting D-gluconates for NaCl and KCl, and Ca(NO3)2 for CaCl2 (chloride dependence). Cells are washed twice with sodium- or chloride-free KRH before the assay (each wash step at least 5 min). In all transport assays, incubation periods and substrate concentrations are chosen such that uptake obeyed first-order rate kinetics.
Vmax values for amine uptake in stable transfected DAT-cells are determined in parallel assays for at least two amines per experiment and expressed as relative values.

The target of series [8] is T5, M1 receptor (Homo sapiens, UniProt P11229).
T5 sequence (P11229 1-460): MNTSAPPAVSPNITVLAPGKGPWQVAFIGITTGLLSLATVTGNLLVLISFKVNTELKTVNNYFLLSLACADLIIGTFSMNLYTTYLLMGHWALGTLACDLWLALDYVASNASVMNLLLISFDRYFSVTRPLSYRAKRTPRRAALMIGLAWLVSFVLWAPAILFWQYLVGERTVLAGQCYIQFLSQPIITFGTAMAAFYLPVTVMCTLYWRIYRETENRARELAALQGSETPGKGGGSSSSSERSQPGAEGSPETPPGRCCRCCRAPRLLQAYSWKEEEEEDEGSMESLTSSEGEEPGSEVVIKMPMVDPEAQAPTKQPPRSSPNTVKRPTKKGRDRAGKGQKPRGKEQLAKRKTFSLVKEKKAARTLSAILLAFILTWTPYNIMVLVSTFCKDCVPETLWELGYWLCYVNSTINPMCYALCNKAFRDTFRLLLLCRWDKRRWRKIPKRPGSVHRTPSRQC
Description: in vitro selectivity panel, M1 receptor. The format is binding. As to the method:
as §1

For series [9], the system named is rats. Description: forced swim test (behavioral despair assay) in rats. The format is in vivo. To be noted: rat; for forced swim test efficacy versus commercial drugs (FIG. 1): i.p., racemic mixtures of diastereomers. As to the method: In vivo efficacy of several illustrative inhibitors of the instant invention, (1), (3), and (4), were measured using standard forced swim test model using rat. The objective of this study was to assess the antidepressant effects of test compounds in the behavioral despair assay in rats using a modification of a method described by Porsolt R. D. et al. in Behavioural despair in rats: a new model sensitive to antidepressant treatment, Eur. J. Pharmacol., 47: 379-391, 1978; Porsolt et al., Nature 266: 730-732, 1977; and Porsolt et al., in Psychopharmacology, Olivier, Mos, and Slangen (eds) Birkhäuser Verlag, Basel, pp. 137-159, 1991. Briefly, when mice (or rats) are forced to swim in a cylinder from which no escape is possible, they readily adopt a characteristic immobile posture and make no further attempts to escape except for small movements needed to keep floating. The immobility is considered by some to reflect a “depressive mood” (Porsolt et al., Nature 266: 730-732, 1977) in which animals cease to struggle to escape the aversive situation. The immobility induced by the procedure is influenced by a wide variety of antidepressants (Porsolt et al., in Psychopharmacology, Olivier, Mos, and Slangen (eds) Birkhauser Verlag, Basel, pp. 137-159, 1991) and has a good predictive validity in that it detects antidepressants with different mechanisms of action (TCAs, SSRIs, MAOIs, and other atypical ones). The test is sensitive to muscle-relaxant (benzodiazepines) and sedative (neuroleptics) effects, leading to enhanced immobility (Porsolt et al., supra).
In a typical experiment, animals are placed singly into a cylinder (e.g. 46×30 cm) containing fresh water at about 20° C. for 6 minutes. The activity (or immobility) of the animal is measured by an observer minute by minute. In more detail, the animals were preconditioned in a pretest session, where the rats were individually forced to swim inside a vertical plexiglass cylinder containing water maintained at 19-20° C. After 15 minutes in the water, they were allowed to dry for […] in a heated enclosure. Twenty-four hours later, the compounds were administered either intraperitoneally or orally to the animals. One hour after administration of the test compound, animals were put back into the cylinder containing water. The total duration of immobility was measured during the last 4 minutes of a 6 minute test.
The results are expressed as the percentage of variation of the total duration of immobility calculated from the mean value of the vehicle-treated group (% variation=[(immobility duration of vehicle−immobility duration of test compound)/(immobility duration of vehicle)]×100%).
In order to measure the in vivo efficacy of inhibiting DAT in rats using an inhibitor of the instant invention, one test inhibitor ((1), (3), or (4)) was injected i.p. as racemic mixtures of diastereomers into the animals, at various-doses (e.g. 7.5 and […]). Sibutramine (2.0 and 2.5 mg/kg), Bupropion (7.5 and 10 mg/kg), and Imipramine (30 mg/kg) were similarly administered as controls. […] Asterisks indicate highly statistical significant results.
A fourth inhibitor, (6) was administered p.o. as a racemic mixture of diastereomers at either 35 or 75 mg/kg. Sibutramine (5.0 and 3.75 mg/kg), Bupropion (30 and 40 mg/kg), and Imipramine (100 mg/kg) were similarly administered as controls.
Similarly, (1) was also administered p.o. as a racemic mixture of enriched (95:5) diastereomer at either 35 or 75 mg/kg. […]

For series [10], the target named is β1-adrenergic receptor (Homo sapiens, UniProt P08588). Description: in vitro selectivity panel, β1-adrenergic receptor. The format is binding. As to the method:
as §1

Series [11] is described as follows: in vivo. To be noted: rat.
In series [12] the target is dopamine D2 receptor (Homo sapiens, UniProt P14416). Description: in vitro selectivity panel, dopamine D2 receptor. The format is binding. As to the method:
as §1

Series [13] deals with sigma-1 (σ1) receptor (Homo sapiens, UniProt Q99720). Description: in vitro selectivity panel, sigma-1 receptor. In kind it is binding. As for the experimental part:
as §1

Series [14] concerns the target 5-HT (Homo sapiens, UniProt P31645). Description: cell-based.
The test system of series [15] is rat. Description: acute single-dose toxicology in rat. In kind it is in vivo. Conditions: rat (n = 5), i.v., observed 72 hours. As for the experimental part: An in vivo evaluation was carried out to determine the maximum tolerated dose of numerous test compounds in rat. The compounds were administered i.v., and the animals were then observed for 72 hours.
Briefly, experimental rats, in groups of 5 animals, were administered with various doses of respective inhibitors (e.g. 30, 90, 120, and 200 mg/kg), and the observed toxicological effects were recorded.

The target in series [16] is T6, DAT (Homo sapiens, UniProt Q01959).
T6 construct: expressed in transfected cells; host or cells: CHO-K1
T6 sequence (Q01959 whole entry): as the sequence (Q01959 whole entry) above
To be noted: human recombinant CHO-K1 cells; historical value (MDS Pharma Services); read-out: KD of radioligand, DAT assay; cited from earlier work.

For series [17], the target named is T7, NET (Homo sapiens, UniProt P23975).
T7 construct: expressed in transfected cells; host or cells: MDCK
T7 sequence (P23975 whole entry): as the sequence (P23975 whole entry) above
To be noted: human recombinant MDCK cells; historical value (MDS Pharma Services); read-out: KD of radioligand, NET assay; cited from earlier work.

Sequence of 5-HT (P31645 whole entry): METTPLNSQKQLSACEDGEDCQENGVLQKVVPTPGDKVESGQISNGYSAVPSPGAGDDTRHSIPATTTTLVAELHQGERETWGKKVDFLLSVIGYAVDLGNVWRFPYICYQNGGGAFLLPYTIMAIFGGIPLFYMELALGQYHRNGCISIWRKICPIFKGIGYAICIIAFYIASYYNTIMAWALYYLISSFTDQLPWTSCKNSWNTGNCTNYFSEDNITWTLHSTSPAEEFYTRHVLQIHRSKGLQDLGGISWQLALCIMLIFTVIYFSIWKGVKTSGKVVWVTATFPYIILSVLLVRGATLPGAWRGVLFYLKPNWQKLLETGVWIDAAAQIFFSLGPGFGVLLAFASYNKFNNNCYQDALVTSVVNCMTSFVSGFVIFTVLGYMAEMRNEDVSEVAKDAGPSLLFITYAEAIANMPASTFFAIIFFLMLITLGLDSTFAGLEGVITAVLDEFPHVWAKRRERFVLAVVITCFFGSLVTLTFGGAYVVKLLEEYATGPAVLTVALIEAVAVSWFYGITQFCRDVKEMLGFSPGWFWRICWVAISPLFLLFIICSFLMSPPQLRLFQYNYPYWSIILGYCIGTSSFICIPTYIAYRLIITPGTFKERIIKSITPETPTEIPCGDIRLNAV
Sequence of DAT (r) (P23977 whole entry): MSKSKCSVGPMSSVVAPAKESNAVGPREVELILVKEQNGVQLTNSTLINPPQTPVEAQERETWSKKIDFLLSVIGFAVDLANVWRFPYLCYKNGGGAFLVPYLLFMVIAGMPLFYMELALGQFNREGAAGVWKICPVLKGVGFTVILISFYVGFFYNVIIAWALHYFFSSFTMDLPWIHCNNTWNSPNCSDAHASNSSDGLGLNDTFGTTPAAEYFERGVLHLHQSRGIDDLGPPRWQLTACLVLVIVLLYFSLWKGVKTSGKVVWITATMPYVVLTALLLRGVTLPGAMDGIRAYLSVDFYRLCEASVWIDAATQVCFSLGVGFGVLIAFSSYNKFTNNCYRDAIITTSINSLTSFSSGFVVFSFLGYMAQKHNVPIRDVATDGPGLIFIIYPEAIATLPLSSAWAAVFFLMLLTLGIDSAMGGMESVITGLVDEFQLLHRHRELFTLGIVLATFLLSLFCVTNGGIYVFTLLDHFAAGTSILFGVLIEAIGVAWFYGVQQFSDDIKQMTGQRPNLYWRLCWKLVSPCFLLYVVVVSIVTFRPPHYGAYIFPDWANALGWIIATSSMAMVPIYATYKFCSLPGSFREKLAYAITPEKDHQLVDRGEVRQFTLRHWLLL
T2 sequence (P31645 whole entry): as the sequence (P31645 whole entry) above
Sequence of dopamine D2 receptor (P14416 whole entry): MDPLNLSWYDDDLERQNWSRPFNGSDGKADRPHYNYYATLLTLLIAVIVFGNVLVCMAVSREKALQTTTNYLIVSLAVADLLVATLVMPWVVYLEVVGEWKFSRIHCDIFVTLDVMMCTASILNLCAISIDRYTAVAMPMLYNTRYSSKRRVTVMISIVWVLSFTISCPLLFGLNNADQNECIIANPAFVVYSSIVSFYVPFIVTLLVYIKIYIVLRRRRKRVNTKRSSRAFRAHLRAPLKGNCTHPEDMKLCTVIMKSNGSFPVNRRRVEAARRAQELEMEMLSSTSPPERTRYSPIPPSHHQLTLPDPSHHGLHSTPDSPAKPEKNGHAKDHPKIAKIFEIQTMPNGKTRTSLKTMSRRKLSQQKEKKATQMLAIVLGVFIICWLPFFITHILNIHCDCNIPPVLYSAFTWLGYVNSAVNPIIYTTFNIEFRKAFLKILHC
Sequence of β1-adrenergic receptor (P08588 whole entry): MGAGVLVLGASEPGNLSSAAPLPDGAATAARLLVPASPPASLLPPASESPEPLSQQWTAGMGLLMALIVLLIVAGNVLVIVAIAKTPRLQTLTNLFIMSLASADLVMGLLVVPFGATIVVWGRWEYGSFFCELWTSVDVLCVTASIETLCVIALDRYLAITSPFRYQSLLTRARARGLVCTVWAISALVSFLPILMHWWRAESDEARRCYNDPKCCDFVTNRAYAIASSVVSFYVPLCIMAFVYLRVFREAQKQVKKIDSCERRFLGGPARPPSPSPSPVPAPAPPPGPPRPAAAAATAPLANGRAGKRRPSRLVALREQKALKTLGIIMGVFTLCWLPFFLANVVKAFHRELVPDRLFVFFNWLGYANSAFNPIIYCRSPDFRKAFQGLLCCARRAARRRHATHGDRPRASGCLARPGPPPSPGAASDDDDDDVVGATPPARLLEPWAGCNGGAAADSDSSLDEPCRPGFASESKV
Sequence of sigma-1 (σ1) receptor (Q99720 whole entry): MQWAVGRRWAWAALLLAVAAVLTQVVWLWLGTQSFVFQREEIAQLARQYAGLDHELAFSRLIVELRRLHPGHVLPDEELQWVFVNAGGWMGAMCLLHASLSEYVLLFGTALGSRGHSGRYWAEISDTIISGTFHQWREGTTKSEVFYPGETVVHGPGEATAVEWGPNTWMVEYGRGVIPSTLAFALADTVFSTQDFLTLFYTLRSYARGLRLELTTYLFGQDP

In the case of `CC1CCC(COc2ccc(C(F)(F)F)cc2)CN1CC1(c2ccc(Cl)cc2)CCC1` (stereo not shown) [(3)], the “Histamine H1 (nM)h” value in [1] stood at 5000 nM. In addition, the IC50 amounted to 150 nM in [2], 1 nM in [7] and 550 nM in [14]. For the same molecule, the EC50 in series [3] is 1 nM; in series [4] it was 825 nM; in series [5] it was 200 nM; in series [6] it was 50 nM. In addition, the “selectivity for DAT over 5-HT” value in series [3] amounted to 825 fold. In addition, the “selectivity for DAT over NET” value in series [3] was 200 fold. Besides, in [7], the “fold selectivity of DAT against related receptors (NET, 5-HT)” value is 150-550 fold. Besides, in series [8], the “M1 (nM)h” value was determined as 5000 nM. In addition, the “forced swim test efficacy versus commercial drugs (FIG. 1)” value in series [9] was “performed equally well, if not better, than the commercial drugs Sibutramine, Bupropion, and Imipramine”. For the same molecule, the “β1-adrenergic (nM)h” value in series [10] came out at 5000 nM. This molecule also gave a Vd in [11] of 10 L/kg. In series [11] (iv), this molecule showed a half-life of 8.33 h. In series [11] (po), this molecule yielded a bioavailability of 70%. Also, the “D2 (nM)h” value in series [12] came out at 1000 nM. Besides, in series [13], the “Sigma σ1 (nM)h” value came out at 5000 nM.
Take `CC1CCC(COc2ccc(C(F)(F)F)cc2)CN1CC(O)C1(c2ccc(Cl)cc2)CCC1` (stereo not shown) [(4)]: in series [9], the “forced swim test efficacy versus commercial drugs (FIG. 1)” value was “performed equally well, if not better, than the commercial drugs Sibutramine, Bupropion, and Imipramine”. Also, the “acute single dose toxicology, observed symptoms” value was “decreased grip strength and limb tone and convulsions” in [15] (120 mg/kg); “Convulsions” in series [15] (200 mg/kg).
As to `CC1C(COc2ccc(C(F)(F)F)cc2)CCCN1CC1(c2ccc(Cl)cc2)CCC1` (stereo not shown) [(5)], half-maximal inhibition in series [2] (IC50) was put at 870 nM. Besides, in series [3], the EC50 came out at 5 nM, the “selectivity for DAT over 5-HT” value was 1000 fold and the “selectivity for DAT over NET” value stood at 1000 fold. In addition, the EC50 in series [6] (rat, unit inferred, read-out: DAT (r) in vitro functional uptake) was found to be 300 nM. Further, in [7], 5 nM corresponded to half-maximal inhibition (IC50) and the “fold selectivity of DAT against related receptors (NET, 5-HT)” value was 174-2,000 fold. Further, inhibition in series [14] was half-maximal at 10000 nM (IC50).
As for `CC1C(COc2ccc(C(F)(F)F)cc2)CCCN1CC(O)C1(c2ccc(Cl)cc2)CCC1` (stereo not shown) [(6)], the “forced swim test efficacy versus commercial drugs (FIG. 2, FIG. 3)” value in [9] (p.o., 35 or 75 mg/kg) was “performed equally well, if not better, than the commercial drugs Sibutramine, Bupropion, and Imipramine”. The “acute single dose toxicology, observed symptoms” value in [15] (200 mg/kg) was “no observed symptoms”.
Regarding `COC(=O)[C@H]1[C@@H](c2ccc(I)cc2)C[C@@H]2CC[C@H]1N2C` [[^125I] RTI-55], the Kd in [16] was 0.58 nM; in series [17], 24 nM.

What is called IC50 is the concentration at which inhibition is half-maximal. High values mean weaker potency in that assay, low ones greater potency in that assay. By Vd is commonly meant the apparent volume that relates the amount in the body to the concentration in plasma or blood. The low end stands for confinement near the circulation, the high end for extensive tissue distribution. As a reminder, the half-life is the time needed for the level to fall by half in the phase considered. A lower half-life goes with fast loss. In general, bioavailability refers to dose-corrected exposure relative to a reference, in per cent. Read a high bioavailability as good availability. The term Kd denotes the concentration at which binding is half-saturated.
